Results as given in PubChem BioAssay (NCI).
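48-hour exposure; five concentrations; linearly interpolated endpoints. TGI marks complete inhibition of growth.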

Assays:
Assay in all cases: DTP human tumour cell line panel, 48 h
786-0 renal = test system: 786-0 renal
ACHN renal = test system: ACHN renal
CCRF-CEM leukemia = test system: CCRF-CEM leukemia
COLO 205 colon = test system: COLO 205 colon
DU-145 prostate = test system: DU-145 prostate
HCC-2998 colon = test system: HCC-2998 colon
HCT-116 colon = test system: HCT-116 colon
HOP-92 NSCLC = test system: HOP-92 NSCLC
K-562 leukemia = test system: K-562 leukemia
LOX IMVI melanoma = test system: LOX IMVI melanoma
MDA-MB-231 breast = test system: MDA-MB-231 breast
NCI/ADR-RES ovarian = test system: NCI/ADR-RES ovarian
OVCAR-3 ovarian = test system: OVCAR-3 ovarian
PC-3 prostate = test system: PC-3 prostate
RPMI-8226 leukemia = test system: RPMI-8226 leukemia
SF-295 CNS = test system: SF-295 CNS
SN12C renal = test system: SN12C renal
SNB-19 CNS = test system: SNB-19 CNS
SW-620 colon = test system: SW-620 colon
M14 melanoma = test system: M14 melanoma

Row | SMILES | TGI (786-0 renal) [µM] | TGI (ACHN renal) [µM] | TGI (CCRF-CEM leukemia) [µM] | TGI (COLO 205 colon) [µM] | TGI (DU-145 prostate) [µM] | TGI (HCC-2998 colon) [µM] | TGI (HCT-116 colon) [µM] | TGI (HOP-92 NSCLC) [µM] | TGI (K-562 leukemia) [µM] | TGI (LOX IMVI melanoma) [µM] | TGI (MDA-MB-231 breast) [µM] | TGI (NCI/ADR-RES ovarian) [µM] | TGI (OVCAR-3 ovarian) [µM] | TGI (PC-3 prostate) [µM] | TGI (RPMI-8226 leukemia) [µM] | TGI (SF-295 CNS) [µM] | TGI (SN12C renal) [µM] | TGI (SNB-19 CNS) [µM] | TGI (SW-620 colon) [µM] | TGI (M14 melanoma) [µM]
1 | CN(C)Cc1cc(N=Nc2c(Cl)cccc2Cl)ccc1O | > 100 | > 100 | > 100 | > 100 | > 100 | > 100 | > 100 | > 100 | > 100 | > 100 | > 100 | > 100 | > 100 | > 100 | > 100 | > 100 | > 100 | > 100 | > 100 | –
2 | O=S(=O)(O)c1ccc(N=Nc2c(O)ccc3ccccc23)cc1 | > 100 | > 100 | > 100 | > 100 | > 100 | > 100 | > 100 | > 100 | > 100 | > 100 | > 100 | > 100 | > 100 | > 100 | > 100 | > 100 | > 100 | > 100 | > 100 | > 100
3 | COc1ccccc1-c1n[nH]c(-c2ccccc2O)n1 | > 100 | > 100 | > 100 | > 100 | > 100 | > 100 | > 100 | > 100 | > 100 | > 100 | > 100 | > 100 | > 100 | > 100 | > 100 | > 100 | > 100 | > 100 | > 100 | > 100
4 | COC(=O)CC(SCCO)SCCO | > 100 | > 100 | > 100 | > 100 | > 100 | > 100 | > 100 | > 100 | > 100 | > 100 | > 100 | > 100 | > 100 | > 100 | > 100 | > 100 | > 100 | > 100 | > 100 | > 100
5 | CC1=NN(c2cccc(Cl)c2)C(=N/c2nc3ccccc3s2)/C1=C\c1ccccc1O | > 100 | 74.3 | > 100 | – | > 100 | 45.4 | 68 | 83.5 | > 100 | 57.6 | 64.4 | 63.7 | 60.4 | 48.7 | > 100 | 86.2 | – | – | > 100 | > 100
6 | Nc1c(O)c2c(c(O)c1Cl)C(=O)C=CC2=O | 25.5 | 18.8 | > 100 | 3.32 | 5.3 | 11.9 | 7.09 | 31.3 | > 60.6 | 16.4 | 19.7 | > 32.6 | 6.02 | 14.8 | 44.8 | 6.94 | 13.7 | 14.2 | 9.93 | 6.08
7 | O=C1CSC2(CC(/C=C/c3cccc(Br)c3)=NN2c2cccc(S(=O)(=O)O)c2)N1c1nc2ccccc2s1 (configuration not stated) | > 100 | > 100 | > 100 | > 100 | > 100 | > 100 | > 100 | > 100 | > 100 | > 100 | > 100 | > 100 | > 100 | > 100 | > 100 | > 100 | > 100 | > 100 | > 100 | > 100
8 | O=S(=O)(O)c1cc(S(=O)(=O)O)c2c(N=Nc3ccccc3)c(O)ccc2c1 | > 100 | – | > 100 | > 100 | > 100 | – | > 100 | > 100 | > 100 | > 100 | > 100 | > 100 | > 100 | > 100 | > 100 | > 100 | > 100 | > 100 | > 100 | > 100
9 | COP(=N[Si](C)(C)C)(OC)OC | > 100 | > 100 | > 100 | > 100 | > 100 | > 100 | > 100 | > 100 | > 100 | > 100 | > 100 | > 100 | > 100 | > 100 | > 100 | – | > 100 | > 100 | > 100 | > 100
10 | C=C[C@@]1(C)CC(=O)[C@]2(O)[C@@]3(C)[C@@H](OC(C)=O)CCC(C)(C)[C@@H]3[C@H](O)[C@H](OC(C)=O)[C@@]2(C)O1 | > 100 | > 100 | – | – | > 100 | > 100 | > 100 | > 100 | > 100 | > 100 | > 100 | > 100 | > 100 | > 100 | – | > 100 | > 100 | > 100 | > 100 | > 100
11 | COC(=O)C1=C(O)C(C(=O)OC)[C@]2(O)[C@H](C(=O)OC)[C@H]1C[C@@H](c1ccc(Cl)cc1Cl)[C@H]2C(=O)OC (some centres not stated) | > 100 | 42.4 | – | 20.9 | 25.7 | 21.9 | 18.9 | 23.8 | 14 | 18.7 | 60 | 38.2 | 24.9 | 23.5 | 7.74 | 31.6 | 22.2 | 24.3 | 57 | 19.1
12 | N#CCN(Cc1ccccc1)[C@H]1CCC[C@]1(O)/C=C/c1ccc2c(c1)OCO2 | 31.4 | > 100 | 53.1 | 30.5 | > 100 | 33.4 | – | 60.9 | 51.5 | 29.4 | 71.5 | 42 | 57.6 | 35.7 | 46 | 31.4 | – | 76.3 | 43.3 | 30.2
